Consider 18 substances from patent US9618524B2, “Method, composition, isolation and identification of a plaque particle and related biomarker” (Plaxgen Inc., priority 2012, dated 2017).

Holding throughout (experiment): Mass spectroscopy proteomics, semi-quantitative binding affinity of serum proteins (plaqueproteome, Table 2)
Conditions in all cases: higher number = stronger affinity

The target of assay [1] is T1, alpha-synuclein plaque particles (Homo sapiens, UniProt P37840).
T1 construct: 140 amino acids polypeptide
The method in brief:
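AD-subject plasma or serum (800 μL of 50%) mixed with 30 μg preformed alpha-synuclein aggregates for 1 h at 37 °C; Thioflavin S-positive particles isolated by flow sorting. After reduction, acrylamide alkylation and overnight tryptic digestion, serum proteins identified by MS/MS with Sequest and Scaffold.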

Assay [2] relates to Low density cholesterol (Chl small) plaque particles. More on the design: species or system human. The method in brief: (§1)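 Read-out is MS/MS protein identification (Sequest, strict trypsin, 20 ppm parent tolerance; Scaffold probabilities) of serum proteins bound to flow-sorted cholesterol plaque particles. These particles formed when 50% atherosclerotic serum was incubated with 30 μg cholesterol aggregates for 1 hr at 37° C.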

The test system of assay [3] is High Density cholesterol (Chl Large) plaque particles. The arrangement: species or system human. Put shortly:
as §1

For assay [4], the system named is Tau plaque particles. The arrangement: species or system human. The method in brief:
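Serum or plasma proteins captured on Thioflavin S-labelled Tau plaque particles (Tau-74, Tau-275 oligomers preformed in PBS at 37° C for 2 h; 1 h co-incubation at 37° C) were isolated by FACS sorting, then tryptically digested and identified by MS/MS (Sequest, human UniProt, strict trypsin).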

In assay [5] the target is T2, Abeta-42 plaque particles (Homo sapiens, UniProt P05067).
T2 construct: Abeta 1-42
The method in brief: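 AD patient serum or plasma (50% in PBS) was incubated with Abeta-42 aggregates (30 μg) for 1 h at 37 °C, then stained with Thioflavin S for 30 min. Labeled particles were FACS-sorted, trypsin/Lys-C digested overnight and analyzed by MS/MS. Sequest searched human UniProt; Scaffold/Protein Prophet validated the identifications.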

With Lumican, the “Semi-quantitative analysis of proteins binding to different plaque particles: Synuclein” value in assay [1] worked out at 0. Moreover, the “Semi-quantitative analysis of proteins binding to different plaque particles: Chl small” value in assay [2] amounted to 3. The “Semi-quantitative analysis of proteins binding to different plaque particles: Chl Large” value in assay [3] is 4. The “Semi-quantitative analysis of proteins binding to different plaque particles: Tau” value in assay [4] is on record as 0. Also, the “Semi-quantitative analysis of proteins binding to different plaque particles: Abeta-42” value in assay [5] was determined as 0.
As to Filaggrin, the “Semi-quantitative analysis of proteins binding to different plaque particles: Synuclein” value in assay [1] is listed as 0. Besides, the “Semi-quantitative analysis of proteins binding to different plaque particles: Chl small” value in assay [2] is given as 0. Further, the “Semi-quantitative analysis of proteins binding to different plaque particles: Chl Large” value in assay [3] was 0. Besides, the “Semi-quantitative analysis of proteins binding to different plaque particles: Tau” value in assay [4] was found to be 0. Moreover, the “Semi-quantitative analysis of proteins binding to different plaque particles: Abeta-42” value in assay [5] is given as 2.
On to Complement C1q subcomponent subunit C, for which, in assay [1], the “Semi-quantitative analysis of proteins binding to different plaque particles: Synuclein” value is listed as 1. Besides, the “Semi-quantitative analysis of proteins binding to different plaque particles: Chl small” value in assay [2] came out at 1. The “Semi-quantitative analysis of proteins binding to different plaque particles: Chl Large” value in assay [3] worked out at 1. Besides, the “Semi-quantitative analysis of proteins binding to different plaque particles: Tau” value in assay [4] is reported as 2. In assay [5], the “Semi-quantitative analysis of proteins binding to different plaque particles: Abeta-42” value is reported as 0.
With Cluster of Nucleolar RNA helicase 2, the “Semi-quantitative analysis of proteins binding to different plaque particles: Synuclein” value in assay [1] came out at 0. The “Semi-quantitative analysis of proteins binding to different plaque particles: Chl small” value in assay [2] is 0. The “Semi-quantitative analysis of proteins binding to different plaque particles: Chl Large” value in assay [3] was determined as 0. In assay [4], the “Semi-quantitative analysis of proteins binding to different plaque particles: Tau” value is on record as 0. In addition, the “Semi-quantitative analysis of proteins binding to different plaque particles: Abeta-42” value in assay [5] is 2.
As to Plasma kallikrein, in assay [1], the “Semi-quantitative analysis of proteins binding to different plaque particles: Synuclein” value came out at 0. The “Semi-quantitative analysis of proteins binding to different plaque particles: Chl small” value in assay [2] stood at 3. Besides, the “Semi-quantitative analysis of proteins binding to different plaque particles: Chl Large” value in assay [3] is on record as 1. The “Semi-quantitative analysis of proteins binding to different plaque particles: Tau” value in assay [4] is on record as 3. In assay [5], the “Semi-quantitative analysis of proteins binding to different plaque particles: Abeta-42” value came out at 0.
With Complement component C8 gamma chain, in assay [1], the “Semi-quantitative analysis of proteins binding to different plaque particles: Synuclein” value amounted to 2. Further, the “Semi-quantitative analysis of proteins binding to different plaque particles: Chl small” value in assay [2] was 1. Also, in assay [3], the “Semi-quantitative analysis of proteins binding to different plaque particles: Chl Large” value is reported as 0. In addition, the “Semi-quantitative analysis of proteins binding to different plaque particles: Tau” value in assay [4] turned out to be 2. Besides, in assay [5], the “Semi-quantitative analysis of proteins binding to different plaque particles: Abeta-42” value came to 0.
As to “Immunoglobulin lambda-like polypeptide 5”, the “Semi-quantitative analysis of proteins binding to different plaque particles: Synuclein” value in assay [1] turned out to be 8. Moreover, in assay [2], the “Semi-quantitative analysis of proteins binding to different plaque particles: Chl small” value was determined as 7. Also, in assay [3], the “Semi-quantitative analysis of proteins binding to different plaque particles: Chl Large” value is recorded as 5. In assay [4], the “Semi-quantitative analysis of proteins binding to different plaque particles: Tau” value was determined as 11. Moreover, the “Semi-quantitative analysis of proteins binding to different plaque particles: Abeta-42” value in assay [5] came to 9.
As to Ig kappa chain V-I region HK102, the “Semi-quantitative analysis of proteins binding to different plaque particles: Synuclein” value in assay [1] turned out to be 1. In assay [2], the “Semi-quantitative analysis of proteins binding to different plaque particles: Chl small” value is on record as 1. Besides, the “Semi-quantitative analysis of proteins binding to different plaque particles: Chl Large” value in assay [3] turned out to be 1. In assay [4], the “Semi-quantitative analysis of proteins binding to different plaque particles: Tau” value is 1. Besides, the “Semi-quantitative analysis of proteins binding to different plaque particles: Abeta-42” value in assay [5] was determined as 5.
In the case of Filaggrin-2, the “Semi-quantitative analysis of proteins binding to different plaque particles: Synuclein” value in assay [1] is recorded as 0. Further, the “Semi-quantitative analysis of proteins binding to different plaque particles: Chl small” value in assay [2] stood at 0. Besides, the “Semi-quantitative analysis of proteins binding to different plaque particles: Chl Large” value in assay [3] was determined as 0. Moreover, in assay [4], the “Semi-quantitative analysis of proteins binding to different plaque particles: Tau” value is on record as 0. For the same substance, the “Semi-quantitative analysis of proteins binding to different plaque particles: Abeta-42” value in assay [5] was 4.
For Cluster of Hemoglobin subunit beta, the “Semi-quantitative analysis of proteins binding to different plaque particles: Synuclein” value in assay [1] was found to be 5. The “Semi-quantitative analysis of proteins binding to different plaque particles: Chl small” value in assay [2] stood at 2. The “Semi-quantitative analysis of proteins binding to different plaque particles: Chl Large” value in assay [3] is 3. Besides, the “Semi-quantitative analysis of proteins binding to different plaque particles: Tau” value in assay [4] came out at 3. Also, the “Semi-quantitative analysis of proteins binding to different plaque particles: Abeta-42” value in assay [5] is given as 4.
On to Ig heavy chain V-III region BRO, for which, in assay [1], the “Semi-quantitative analysis of proteins binding to different plaque particles: Synuclein” value was found to be 4. Also, in assay [2], the “Semi-quantitative analysis of proteins binding to different plaque particles: Chl small” value is 6. The “Semi-quantitative analysis of proteins binding to different plaque particles: Chl Large” value in assay [3] turned out to be 5. In addition, in assay [4], the “Semi-quantitative analysis of proteins binding to different plaque particles: Tau” value amounted to 5. Besides, the “Semi-quantitative analysis of proteins binding to different plaque particles: Abeta-42” value in assay [5] worked out at 7.
On to Ig heavy chain V-III region TUR, for which the “Semi-quantitative analysis of proteins binding to different plaque particles: Synuclein” value in assay [1] was found to be 1. For the same substance, the “Semi-quantitative analysis of proteins binding to different plaque particles: Chl small” value in assay [2] was found to be 3. In assay [3], the “Semi-quantitative analysis of proteins binding to different plaque particles: Chl Large” value was 2. The “Semi-quantitative analysis of proteins binding to different plaque particles: Tau” value in assay [4] stood at 0. The “Semi-quantitative analysis of proteins binding to different plaque particles: Abeta-42” value in assay [5] is listed as 4.
For Ig heavy chain V-III region WA, in that order: 0, 2, 1, 1 and 4.
On to Platelet factor 4, for which the “Semi-quantitative analysis of proteins binding to different plaque particles: Synuclein” value in assay [1] was 1. In addition, in assay [2], the “Semi-quantitative analysis of proteins binding to different plaque particles: Chl small” value is listed as 0. The “Semi-quantitative analysis of proteins binding to different plaque particles: Chl Large” value in assay [3] turned out to be 1. The “Semi-quantitative analysis of proteins binding to different plaque particles: Tau” value in assay [4] is on record as 1. Also, the “Semi-quantitative analysis of proteins binding to different plaque particles: Abeta-42” value in assay [5] came to 2.
For the substance Cluster of Platelet factor 4, the “Semi-quantitative analysis of proteins binding to different plaque particles: Synuclein” value in assay [1] is 1. The “Semi-quantitative analysis of proteins binding to different plaque particles: Chl small” value in assay [2] stood at 0. The “Semi-quantitative analysis of proteins binding to different plaque particles: Chl Large” value in assay [3] amounted to 1. Besides, the “Semi-quantitative analysis of proteins binding to different plaque particles: Tau” value in assay [4] was 1. Also, in assay [5], the “Semi-quantitative analysis of proteins binding to different plaque particles: Abeta-42” value was 2.
In the case of Complement component C7, the “Semi-quantitative analysis of proteins binding to different plaque particles: Synuclein” value in assay [1] was found to be 1. The “Semi-quantitative analysis of proteins binding to different plaque particles: Chl small” value in assay [2] amounted to 6. The “Semi-quantitative analysis of proteins binding to different plaque particles: Chl Large” value in assay [3] turned out to be 4. The “Semi-quantitative analysis of proteins binding to different plaque particles: Tau” value in assay [4] was 4. Further, in assay [5], the “Semi-quantitative analysis of proteins binding to different plaque particles: Abeta-42” value is reported as 0.
Lysozyme C: in assay [1], the “Semi-quantitative analysis of proteins binding to different plaque particles: Synuclein” value is given as 0. Further, in assay [2], the “Semi-quantitative analysis of proteins binding to different plaque particles: Chl small” value was determined as 0. The “Semi-quantitative analysis of proteins binding to different plaque particles: Chl Large” value in assay [3] is 0. For the same substance, in assay [4], the “Semi-quantitative analysis of proteins binding to different plaque particles: Tau” value came out at 0. In addition, the “Semi-quantitative analysis of proteins binding to different plaque particles: Abeta-42” value in assay [5] was found to be 4.
On to Myosin-1, for which the “Semi-quantitative analysis of proteins binding to different plaque particles: Synuclein” value in assay [1] is reported as 0. Further, in assay [2], the “Semi-quantitative analysis of proteins binding to different plaque particles: Chl small” value stood at 0. For the same substance, the “Semi-quantitative analysis of proteins binding to different plaque particles: Chl Large” value in assay [3] came to 0. In addition, in assay [4], the “Semi-quantitative analysis of proteins binding to different plaque particles: Tau” value amounted to 0. The “Semi-quantitative analysis of proteins binding to different plaque particles: Abeta-42” value in assay [5] is reported as 22.
